2 molecules from ChEMBL document CHEMBL1821559, “Grassypeptolides F and G, cyanobacterial peptides from Lyngbya majuscula” (J Nat Prod, 2011) can be followed below.

The structures appear in SMILES notation. Activity calls are given as the source filed them. No cut-off for these calls is given here.

This assay has as its system HEK-293T. Description: Cytotoxicity against AP1 expressing HEK293T cells coexpressing beta-lactamase pre-incubated 1 hr before TPA addition measured 18 hrs post TPA challenge by fluorimetric assay. In kind it is functional, cell-based. To be noted: Homo sapiens.

`CC[C@H]1NC(=O)[C@@H]2CSC(=N2)[C@@H](Cc2ccccc2)N(C)C(=O)[C@@H]2CCCN2C(=O)[C@H](C(C)C)N(C)C(=O)[C@H](Cc2ccccc2)OC(=O)[C@H](C)[C@@H](C)NC(=O)[C@@H](C(C)C)NC(=O)[C@@H](Cc2ccccc2)N(C)C(=O)[C@@H]2CSC1=N2`: the result was Active.

In the case of `CC(C)[C@H]1C(=O)N2CCC[C@H]2C(=O)N(C)[C@H](Cc2ccccc2)C2=N[C@@H](CS2)C(=O)N[C@H](C)C2=N[C@@H](CS2)C(=O)N(C)[C@H](Cc2ccccc2)C(=O)N[C@H](C(C)C)C(=O)N[C@H](C)[C@@H](C)C(=O)O[C@@H](Cc2ccccc2)C(=O)N1C`, the outcome was Active.
